Values joined by “and” are separate entries in the source; they are usually repeats but may differ in a detail not shown here. Equal values may be shown once. Read-outs that look alike come from different tables or passages of the source.
Key:
[1] = test system: S. epidermidis MSSE; settings: Gram positive clinical isolate
[2] = molecular target: T1, CXCR4 (Homo sapiens, UniProt P61073); experiment: Competition with 12G5 mAb binding to CXCR4 on MT2 cells (flow cytometry); settings: 80 μM; read-out: % Inhibition of 12G5 mAb binding to CXCR4
T1 construct: incubated at 4° C. with anti-CXCR4 mAb, 12G5, conjugated to phycoerithrine (PE); endogenous in cells; host or cells: MT2 cells
Experimental: Interaction of pAACs and arginine peptides with CXCR4 coreceptor: Interactions of pAACs and arginine-peptides with CXCR4 were determined by flow cytometry (FACS-Scan, Becton Dickinson) as previously described (Litovich (2001) supra). In brief, 0.5×10^6 MT2 cells were washed with ice-cold PBS containing 0.1% sodium azide (wash buffer) and were incubated at 4° C. with anti-CXCR4 mAb, 12G5, conjugated to phycoerithrine (PE), in the absence or presence of different concentrations of pAACs and arginine peptides. After 30 minutes of incubation, the cells were washed with ice-cold wash buffer and fixed in PBS containing 1% paraformaldehyde. Non-specific fluorescence was assessed using an isotype control. For each sample 10,000 events were acquired. Data were analyzed and processed using CellQuest™ software (Becton Dickinson).

[3] = test system: P. aeruginosa-gentamicin^r, meropenem^r; settings: Gram negative clinical isolate
[4] = test system: S. aureus MRSA; settings: Gram positive clinical isolate
[5] = test system: Streptococcus bovis ATCC 9809; experiment: MIC, broth microdilution; type: cell-based; settings: Gram positive reference strain
Experimental: (§1) Minimal Inhibition Concentration (MIC) measurements: The Minimal Inhibitory Concentration (MIC) was generally determined by the Broth Microdilution method (based on the protocol described in Clinical and Laboratory Standard Institute (CLSI) NCCLS (2003) M7-A6), as follows:
(§2) A stock solution of each of the tested compounds was prepared by diluting the compound to a 2,560 μg/ml concentration with an appropriate solvent. The stock solution was then serially 2-fold diluted in 96-well microdilution trays using Cation-Adjusted Mueller-Hinton Broth (CAMHB) until reaching the desired range of concentrations, whereas each well contained double the final working concentration. Each row further had one growth control well (medium+inoculum only), and one sterility control well (medium+tested compound). Plates were stored at −70° C. until used.
(§3) The tested microorganisms were used as fresh overnight cultures on blood agar (for gram-positive organisms) or MacConkey agar (for gram-negatives). A standardized inoculum suspension was prepared by the direct colony suspension method, using sterile saline (equivalent to a 0.5 McFarland standard).
(§4) Thus, 50 μl of the inoculum suspension were added to each tested well (except for the sterility control well), and […] was performed during 18-24 hours (depending on the tested microorganism or compound) at 35° C.

[6] = test system: Serratia marcescens; settings: Gram negative clinical isolate
[7] = test system: HIV-1 IIIB; experiment: microbe, parasite or virus in culture; type: cell-based; settings: Table 3; against HIV-1 IIIB virus; read-out: EC50
Experimental: Inhibition of HIV-1 cell replication was tested using the cMAGI assay, which is based on the ability of HIV-1 TAT to transactivate the expression of an integrated β-galactosidase reporter gene driven by the HIV-LTR (B. Chackeria et al., J. Virol., (1997) 71, 3932; Collins et al., Nat. Med. (2000) 6, 475). The β-galactosidase reporter is modified to remain localized in the nucleus where it can be detected with the X-gal (5-bromo-4-chloro-3indoyl-β-D-galactopyranoside) substrate as an intense nuclear stain within a few days of infection.
(§5) HIV-1 isolates were propagated by subculture in MT2 cells (Litovchick et al. (2001) supra). Aliquots of cell-free culture supernatants were used as viral inoculum. PAACs were dissolved in the RPMI 1640 medium. Cytotoxicity determinations were carried out in MT2 cells by trypan blue exclusion assay. Viral inhibition was determined by incubating MT2 or cMAGI HIV-1 reporter cells with 0.2-0.5 multiplicity of infection of HIV-1 wild type or resistant virus for 4 days at 37° C. in the presence or absence of various concentrations of pAACs. HIV-1 infection of cMAGI cells was determined by counting the number of HIV-1-infected cells (stained blue). The cytopathic effects of the viral infection of MT2 cells were also analyzed by microscopic assessment of syncytium formation.

[8] = test system: Staphylococcus aureus ATCC 24213; settings: Gram positive reference strain
[9] = test system: E. Coli-ESBL positive; settings: Gram negative clinical isolate
[10] = test system: A. baumannii-amikacin^s, meropenem^s; settings: Gram negative clinical isolate
[11] = test system: Enterococcus faecalis (clinical isolate); settings: Gram positive clinical isolate
[12] = test system: Enterobacter cloacae; settings: Gram negative clinical isolate
[13] = test system: E. coli U3075921; experiment: MIC, broth microdilution; type: cell-based, Escherichia coli; settings: clinical isolate, Table 7
Experimental: as §1, §2, §3, §4

[14] = test system: K. pneumoniae-ESBL positive; settings: Gram negative clinical isolate
[15] = test system: Escherichia coli ATCC 25922; settings: Gram negative reference strain
[16] = in vitro; type: cell-based; settings: human, MT2 cells; Table 3; trypan blue exclusion; read-out: Cytotoxicity
Experimental: Cytotoxicity of the various pAACs was determined using the trypan blue exclusion assay. In brief, a sample of the cell suspension was diluted 1:1 (v/v) with 0.4% trypan blue and the cells were counted using a hemocytometer. Results are expressed as the percentage of dead cells.
as §5

[17] = test system: K. pneumoniae-ESBL negative; settings: Gram negative clinical isolate
[18] = test system: VRE faecium; settings: clinical isolate, Table 7
[19] = test system: S. epidermidis MRSE; settings: Gram positive clinical isolate
[20] = test system: S. aureus MSSA; settings: Gram positive clinical isolate
[21] = test system: cMAGI cells; settings: FITC derivatives, 5 and 15 μM, 30 minutes at 37° C.
Experimental: Cellular uptake using pAACs and polyarginine peptide-fluorescent derivatives: cMAGI cells were incubated in a 8-well plate (2000 cells/well) with a pAACs-FITC or a peptide-FITC derivative at a final concentration of 5 and 15 μM, for 30 minutes at 37° C. After incubation, cells were washed 3 times with phosphate buffered saline 3 times and were subjected to confocal microscopy measurements (Olympus IX70 FV500 confocal laser scanning microscope).

[22] = test system: P. aeruginosa-gentamicin^s, meropenem^s; settings: Gram negative clinical isolate
[23] = test system: Enterobacter aerogenes; settings: Gram negative clinical isolate
[24] = test system: Pseudomonas aeruginosa ATCC 27853; settings: Gram negative reference strain
[25] = test system: Klebsiella pneumoniae ATCC 13883; settings: Gram negative reference strain
[26] = test system: A. baumannii-amikacin^r, meropenem^r; settings: Gram negative clinical isolate
[27] = test system: Moraxella catarrhalis ATCC 25238 (Branhamella); settings: Gram negative reference strain
[28] = test system: Proteus mirabilis ATCC 7002; settings: Gram negative reference strain
[29] = test system: E. Coli-ESBL negative; settings: Gram negative clinical isolate
[30] = test system: Acinetobacter baumannii ATCC 19606; settings: Gram negative reference strain
[31] = test system: S. epidermidis B32954; experiment: MIC, broth microdilution; type: cell-based, Staphylococcus epidermidis; settings: Gram positive clinical isolate
[32] = test system: Enterobacter cloacae W25161; settings: Gram negative clinical isolate
[33] = test system: E. coli U23773^r; settings: Gram negative clinical isolate
[34] = test system: Enterococcus faecalis B84939-vancomycin^r; experiment: MIC, broth microdilution; type: cell-based; settings: Gram positive clinical isolate
[35] = test system: A. baumannii R16998; settings: Gram negative clinical isolate
[36] = test system: P. aeruginosa R17093; experiment: MIC, broth microdilution; type: cell-based, Pseudomonas aeruginosa; settings: Gram negative clinical isolate; for MIC: read-out: Minimum Inhibitory Concentration
[37] = test system: Enterococcus faecium (clinical isolate); experiment: MIC, broth microdilution; type: cell-based; settings: Gram positive clinical isolate
[38] = read-out: Minimum Inhibitory Concentration

T1 sequence (P61073 whole entry): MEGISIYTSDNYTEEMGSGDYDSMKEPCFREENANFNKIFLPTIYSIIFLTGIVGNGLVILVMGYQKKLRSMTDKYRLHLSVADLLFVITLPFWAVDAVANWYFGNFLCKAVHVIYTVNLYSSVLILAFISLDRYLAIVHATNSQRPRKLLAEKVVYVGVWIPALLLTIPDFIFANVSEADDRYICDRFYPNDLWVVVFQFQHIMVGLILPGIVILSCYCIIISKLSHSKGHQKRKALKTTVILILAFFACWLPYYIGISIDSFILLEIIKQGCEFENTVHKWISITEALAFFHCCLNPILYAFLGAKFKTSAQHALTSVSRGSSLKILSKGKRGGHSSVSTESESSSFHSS

Row | Compound | Minimum Inhibitory Concentration [1] | Minimum Inhibitory Concentration [3] | Minimum Inhibitory Concentration [4] | Minimum Inhibitory Concentration [6] | EC50 [7] [µM] | Minimum Inhibitory Concentration [9] | Minimum Inhibitory Concentration [10] | Minimum Inhibitory Concentration [11] | Minimum Inhibitory Concentration [12] | Minimum Inhibitory Concentration [14] | Minimum Inhibitory Concentration [17] | Minimum Inhibitory Concentration [19] | Minimum Inhibitory Concentration [20] | Minimum Inhibitory Concentration [22] | Minimum Inhibitory Concentration [23] | Minimum Inhibitory Concentration [26] | Minimum Inhibitory Concentration [29] | also measured
1 | N=C(N)NCCC[C@H](NC(=O)[C@H](CCCNC(=N)N)NC(=O)[C@H](CCCNC(=N)N)NC(=O)[C@H](CCCNC(=N)N)NC(=O)[C@H](CCCNC(=N)N)NC(=O)[C@H](CCCNC(=N)N)NC(=O)[C@H](CCCNC(=N)N)NC(=O)[C@H](CCCNC(=N)N)NC(=O)[C@@H](N)CCCNC(=N)N)C(=O)O [Compound 5, L-Arg-9-mer-NH2] | 12.0 mg/liter and 5.93 μM | > 256.0 mg/liter and 126.50 μM | > 128.0 mg/liter and 63.25 μM | > 256.0 mg/liter and 126.50 μM | 33 | 256.0 mg/liter and 126.50 μM | > 256.0 mg/liter and 126.50 μM | 128.0 mg/liter and 63.25 μM | > 256.0 mg/liter and 126.50 μM | > 256.0 mg/liter and 126.50 μM | > 256.0 mg/liter and 126.50 μM | 32.0 mg/liter and 15.81 μM | 128.0 mg/liter and 63.25 μM | > 256.0 mg/liter and 126.50 μM | > 256.0 mg/liter and 126.50 μM | > 256.0 mg/liter and 126.50 μM | > 256.0 mg/liter and 126.50 μM | inhibition at 80 µM [2]: 52.8%; Minimum Inhibitory Concentration [5]: 128.0 mg/L; Minimum Inhibitory Concentration [8]: 128.0 mg/liter and 63.25 μM; Minimum Inhibitory Concentration [13]: > 256.0 mg/L; Minimum Inhibitory Concentration [15]: > 256.0 mg/liter and 126.50 μM; CC50 [16]: 120 µM; Minimum Inhibitory Concentration [18]: > 128.0 mg/L; cellular uptake [21]: lower uptake efficiency; Minimum Inhibitory Concentration [24]: > 256.0 mg/liter and 126.50 μM; Minimum Inhibitory Concentration [25]: > 256.0 mg/liter and 126.50 μM; Minimum Inhibitory Concentration [27]: 32.0 mg/liter and 15.81 μM; Minimum Inhibitory Concentration [28]: > 256.0 mg/liter and 126.50 μM; Minimum Inhibitory Concentration [30]: > 256.0 mg/liter and 126.50 μM
2 | L-Arg-9-mer-neomycin [Compound 8] | 0.5 mg/liter and 0.17 μM | 128.0 mg/liter and 43.83 μM | 2.0 mg/liter and 0.68 μM | 4.0 mg/liter and 1.37 μM | 30 ± 7 | 8.0 mg/liter and 2.74 μM | 6.0 mg/liter and 2.06 μM | 256.0 mg/liter and 87.67 μM | 8.0 mg/liter and 2.74 μM | 1.5 mg/liter and 0.51 μM | 3.0 mg/liter and 1.03 μM | 0.5 mg/liter and 0.17 μM | 4.0 mg/liter and 1.37 μM | 48.0 mg/liter and 16.44 μM | 8.0 mg/liter and 2.74 μM | 128.0 mg/liter and 43.83 μM | 4.0 mg/liter and 1.37 μM | Minimum Inhibitory Concentration [31]: 0.5 mg/L; MIC [31, 38]: 0.17 µM; Minimum Inhibitory Concentration [32]: 8.0 mg/liter and 2.74 μM; Minimum Inhibitory Concentration [33]: 96.0 mg/liter and 32.88 μM; Minimum Inhibitory Concentration ([33]; listed as L-Neo-9-mer): 32.88 µM; Minimum Inhibitory Concentration ([26]; listed as L-Neo-9-mer): 57.92 µM; Minimum Inhibitory Concentration [34]: 32.0 mg/L; MIC [34, 38]: 10.96 µM; Minimum Inhibitory Concentration [35]: 128.0 mg/liter and 43.83 μM; Minimum Inhibitory Concentration [36]: 128.0 mg/L; MIC ([36]; listed as L-Neo-9-mer): 43.83 µM; MIC [36]: 43.83 µM; Minimum Inhibitory Concentration [37]: 32.0 mg/L; MIC [37, 38]: 10.96 µM

From patent publication US20060166867A1, “Novel conjugates of polysaccharides and uses thereof” (priority 2003, published 2006)
